Measurements: patent US20170114070A1, “INHIBITORS OF THE WNT SIGNALLING PATHWAYS” (Bayer Pharma Aktiengesellschaft, priority 2014, published 2017)

Assays:
[1] = tested on: constitutive active Wnt pathway (HCT116 TOPFlash); experiment: Cellular reporter assay, HCT116 Super TopFlash (constitutive active Wnt pathway); type: cell-based; conditions: Homo sapiens, HCT-116; HCT116 stably transfected with Super TopFlash vector; 36 hours incubation; luciferase expression
Protocol: In order to discover and characterize small molecules which inhibit the constitutive active colorectal cancer cell (CRC) Wnt pathway, a cellular reporter assay was employed. The corresponding assay cell was generated by transfection of the colorectal cancer cell line HCT116 (ATCC, #CCL-247) with the Super TopFlash vector (Morin, Science 275, 1997, 1787-1790; Molenaar et al., Cell 86 (3), 1996, 391-399). The HCT116 cell line is cultivated at 37° C. and 5% CO2 in DMEM/F-12 (Life Technologies, #11320-074), supplemented with 2 mM glutamine, 20 mM HEPES, 1.4 mM pyruvate, 0.15% Na-bicarbonate and 10% foetal bovine serum (GIBCO, #10270), this cancer cell line is pathophysiological relevant since it carries a deletion of position S45 in the β-catenin gene, leading to constitutive active Wnt signaling. Stable transfectants were generated by cotransfection with pcDNA3 and selection of stable transfected cells with 1 mg/ml G418.
(§1) In a parallel approach, HCT116 cells were cotransfected with the FOP control vector and pcDNA3. The FOP vector is identical to the TOP construct, but it contains instead of functional TCF elements a randomized, non-functional sequence. For this transfection a stable transfected cell line was generated as well.
(§2) In preparation of the assay, the two cell lines were plated 24 hours before at 10000 cells per well of a 384 micro titre plate (MTP) in 30 μL growth medium. Selective inhibitory activity for small molecules on the mutated Wnt pathway was determined after parallel incubation of both (TOP and FOP) HCT116 reporter cell lines with a compound dilution series from 50 μM to 15 nM in steps of 3.16-fold dilutions in CAFTY buffer (130 mM NaCl, 5 mM KCl, 20 mM HEPES, 1 mM MgCl2, 5 mM NaHCO3, pH 7.4) containing 2 mM Ca^2+ and 0.01% BSA. The compounds were thereby serially prediluted in 100% DMSO and thereafter in addition 50 fold into the CAFTY compound dilution buffer (described above). From this dilution 10 μL were added to the cells in 30 μL growth medium and incubated for 36 hours at 37° C. and 5% CO2. Thereafter luciferase assay buffer (1:1 mixture of luciferase substrate buffer (20 mM Tricine, 2.67 mM MgSO4, 0.1 mM EDTA, 4 mM DTT, 270 μM Coenzyme A, 470 μM Luciferin, 530 μM ATP, ph adjusted to pH 7.8 with a sufficient volume of 5M NaOH) and Triton buffer (30 mL Triton X-100, 115 mL glycerol, 308 mg Dithiothreitol, 4.45 g Na2HPO4.2H2O, 3.03 g TRIS HCl, ad 1 l H20, pH 7.8) was added as equal volume to the compound solution on the cells to determine luciferase expression as a measure of Wnt signaling activity in a luminometer.

[2] = tested on: HCT116 FOPFlash (FOP control vector, non-functional TCF elements); experiment: Cellular control reporter assay, HCT116 FOP control vector; type: cell-based; conditions: Homo sapiens, HCT-116; HCT116 stably transfected with FOP control vector; 36 hours incubation; luciferase expression; dilution series from 50 μM
Protocol: as §1, §2

SMILES	IC50 [1] [nM]	IC50 [2] [nM]
CN1CCN(CC(=O)Nc2cc(C(=O)Nc3cnc(-c4ccnc(N)c4)cn3)ccc2OC(F)(F)F)CC1 [Example 56, N-[5-(2-aminopyridin-4-yl)pyrazin-2-yl]-3-{[(4-methylpiperazin-1-yl)acetyl]amino}-4-(trifluoromethoxy)benzamide]	2000	≥ 50000
O=C(CN1C[C@@H]2C[C@H]1CO2)Nc1cc(C(=O)Nc2ccc(-c3ccccc3)nn2)ccc1OC(F)(F)F [Example 8, 3-{[(1S,4S)-2-oxa-5-azabicyclo[2.2.1]hept-5-ylacetyl]amino}-N-(6-phenylpyridazin-3-yl)-4-(trifluoromethoxy)benzamide]	125	≥ 50000
O=C(CN1CCOCC1)Nc1cc(C(=O)Nc2ccc(-c3cncnc3)nn2)ccc1OC(F)(F)F [Example 15, 3-[(morpholin-4-ylacetyl)amino]-N-[6-(pyrimidin-5-yl)pyridazin-3-yl]-4-(trifluoromethoxy)benzamide]	636	≥ 50000
O=C(CN1CCOCC1)Nc1cc(C(=O)Nc2cnc(-c3cnccn3)cn2)ccc1OC1CC1 [Example 52, N-(2,2′-bipyrazin-5-yl)-4-(cyclopropyloxy)-3-[(morpholin-4-ylacetyl)amino]benzamide]	372	44700
CN1CCN(CC(=O)Nc2cc(C(=O)Nc3cnc(-c4ccccn4)cn3)ccc2OC(F)(F)F)CC1 [Example 40, 3-{[(4-methylpiperazin-1-yl)acetyl]amino}-N-[5-(pyridin-2-yl)pyrazin-2-yl]-4-(trifluoromethoxy)benzamide]	153	≥ 50000
CN1CCN(CC(=O)Nc2cc(C(=O)Nc3cnc(-c4cccc(F)c4)cn3)ccc2OC(F)(F)F)CC1 [Example 59, N-[5-(3-fluorophenyl)pyrazin-2-yl]-3-{[(4-methylpiperazin-1-yl)acetyl]amino}-4-(trifluoromethoxy)benzamide]	3000	≥ 50000
CN1CCN(CC(=O)Nc2cc(C(=O)Nc3cnc(-c4ccccc4)cn3)ccc2OC(F)(F)F)CC1 [Example 11, 3-{[(4-methylpiperazin-1-yl)acetyl]amino}-N-(5-phenylpyrazin-2-yl)-4-(trifluoromethoxy)benzamide]	13	≥ 50000
CN1CCN(CC(=O)Nc2cc(C(=O)Nc3cnc(-c4ccncc4)cn3)ccc2OC(F)(F)F)CC1 [Example 28, 3-{[(4-methylpiperazin-1-yl)acetyl]amino}-N-[5-(pyridin-4-yl)pyrazin-2-yl]-4-(trifluoromethoxy)benzamide]	64	≥ 50000
CN1CCN(CC(=O)Nc2cc(C(=O)Nc3ccc(-c4ccccc4)nn3)ccc2OC(F)(F)F)CC1 [Example 9, 3-{[(4-methylpiperazin-1-yl)acetyl]amino}-N-(6-phenylpyridazin-3-yl)-4-(trifluoromethoxy)benzamide]	29.7	≥ 50000

Now from value to compound:

IC50 [1] [nM]	IC50 [2] [nM]	SMILES
483	≥ 50000	O=C(CN1CCOCC1)Nc1cc(C(=O)Nc2cnc(-c3ccncc3)cn2)ccc1OC(F)(F)F [Example 51, 3-[(morpholin-4-ylacetyl)amino]-N-[5-(pyridin-4-yl)pyrazin-2-yl]-4-(trifluoromethoxy)benzamide]
116	≥ 5770	O=C(CN1CCOCC1)Nc1cc(C(=O)Nc2cnc(-c3cccc(Cl)c3)cn2)ccc1OC(F)(F)F [Example 35, N-[5-(3-chlorophenyl)pyrazin-2-yl]-3-[(morpholin-4-ylacetyl)amino]-4-(trifluoromethoxy)benzamide]
88.5	26800	O=C(CN1CCOCC1)Nc1cc(C(=O)Nc2cnc(-c3cc(F)cc(F)c3)cn2)ccc1OC(F)(F)F [Example 31, N-[5-(3,5-difluorophenyl)pyrazin-2-yl]-3-[(morpholin-4-ylacetyl)amino]-4-(trifluoromethoxy)benzamide]
4620	23100	O=C(CN1CCOCC1)Nc1cc(C(=O)Nc2cnc(-c3ccccc3F)cn2)ccc1OC(F)(F)F [Example 25, N-[5-(2-fluorophenyl)pyrazin-2-yl]-3-[(morpholin-4-ylacetyl)amino]-4-(trifluoromethoxy)benzamide]
29.7	46000	O=C(CN1CCOCC1)Nc1cc(C(=O)Nc2cnc(-c3cccnc3)cn2)ccc1OC(F)(F)F [Example 23, 3-[(morpholin-4-ylacetyl)amino]-N-[5-(pyridin-3-yl)pyrazin-2-yl]-4-(trifluoromethoxy)benzamide]
58	≥ 50000	O=C(CN1CCOCC1)Nc1cc(C(=O)Nc2cnc(-c3cncnc3)cn2)ccc1OC(F)(F)F [Example 26, 3-[(morpholin-4-ylacetyl)amino]-N-[5-(pyrimidin-5-yl)pyrazin-2-yl]-4-(trifluoromethoxy)benzamide]
